Assay results published in patent US10040789B2, “1,3,4-thiadiazole compounds and their use in treating cancer” (AstraZeneca AB, priority 2015, dated 2018).
Like-named read-outs stand apart in the source and are kept apart here.

What was measured:
[1] = target: cellular GLS activity in PC3 cells (Homo sapiens (Human), UniProt O94925); test: GLS Cell Potency Assay (PC3 coupled assay measuring cellular glutamate depletion); assay type: cell-based; settings: PC3 cells, 6 h incubation, cellular glutamate depletion; read-out: Assay b) GLS cell MOA Mean IC50
From the text: (§1) The following assays were used to measure the effects of the compounds described herein: a) GLS Enzyme Potency Assay; b) GLS Cell Potency Assay; c) GLS Cell Proliferation Assay. During the description of the assays, generally: • i. The following abbreviations have been used: CO2=Carbon dioxide; DMEM=Dulbecco's Modified Eagle Medium; DMSO=Dimethyl sulphoxide; EDTA=Ethylenediaminetetraacetic acid; EGTA=Ethylene glycol tetraacetic acid; FCS=Foetal calf serum; h=Hour(s); NBS=Non-binding surface; SDS=Sodium dodecyl sulphate; TRIS=Tris(Hydroxymethyl)aminomethane. • ii. IC50 values were calculated using a smart fitting model in Genedata.
Assay b): GLS Cell Potency Assay
Compounds were assessed for their potential to inhibit cellular GLS activity by use of a PC3 coupled assay measuring cellular glutamate depletion. […] DMSO concentration was maintained at 0.3% by back filling with DMSO solution. PC3 cells were grown in phenol free DMEM, 10% dialyzed FCS, 2 mM glutamine and following dispersal by trypsinisation were plated at 5.6×10^3 cells per well in 40 μl of growth medium directly into the 384 well assay plates containing dispensed compound. After incubation for 6 h at 37° C., 5% CO2 growth media was aspirated and cells lysed in 15 μl of buffer containing 10 mM TRIS pH7.4, 100 mM NaCl, 1 mM EDTA, 1 mM EGTA, 1 mM NaF, 20 mM Na4P2O7, 2 mM Na3VO4, 1% Triton X-100, 10% glycerol, 0.1% SDS and 0.5% deoxycholate. 4 μl Of cell lysate was then transferred to a 384 well NBS plate (Corning product code 3575) and 35 μl of […] Amplex Red, 0.1375 U/mL Horseradish Peroxidase, 0.044 U/mL glutamate oxidase, 100 mM TRIS pH7.5 was added.

NCI-H1703 cells = test: GLS Cell Proliferation Assay (NCI-H1703 cell proliferation); assay type: cell-based
From the text: as §1
Assay c): GLS Cell Proliferation Assay
The ability of compounds to inhibit cell growth was measured using a 384 well plate NCI-H1703 cell proliferation assay. NCI-H1703 cells were grown in phenol red free RPMI1640, 10% FCS and 2 mM glutamine and seeded at a density of 750 cells per well in 40 μl of growth medium into clear-bottom 384 well assay plates (Corning product code 3712) and incubated for 24 h at 37° C., 5% CO2. Test compounds were prepared by dilution in 100% DMSO to give the correct dose range for 12 point concentration response and an appropriate volume (5-120 nl) dispensed directly into the assay plates containing plated cells. DMSO concentration was maintained at 0.3% by back filling with DMSO solution. Plates were incubated for 5 days at 37° C., 5% CO2, Sytox Green and Saponin added to final concentration of 2 μM and 0.25% respectively and incubated for 6 h prior to analysis. Plates were read on an Acumen eX3 (TTP Labtech) using 488 nm excitation and FITC filter set (500-530 nm) for emission. IC50 values were calculated by curve fitting to max inhibition of day zero growth using GeneData software analysis.

GLS1 = GLS1 (Homo sapiens (Human), UniProt O94925); test: GLS Enzyme Potency Assay (Glutamate Oxidase/AmplexRed coupled assay); assay type: biochemical
From the text: as §1
Assay a): GLS Enzyme Potency Assay
A Glutamate Oxidase/AmplexRed coupled assay was used to measure the ability of compounds to bind to and inhibit the activity of GLS1 in vitro. […] GLS1 was diluted to 2×working concentration and incubated at room temperature to allow the tetrameric/dimeric forms to reach steady state. Assay measurements were performed in buffer comprising 50 mM TRIS pH 7.8, 100 mM NaPO4, pH 7.8, 0.001% v/v Tween20. […] DMSO concentration was maintained at 2% by back filling with DMSO solution. […] 3 μL of 100 mM glutamine diluted in assay buffer was then added and the reaction incubated at room temperature for 60 minutes. […] An artefact version of the assay where the 6His tagged GLS protein and glutamine were replaced with assay buffer was also used to rule out non specific effects on the assay components.

[2] = Homo sapiens, 120 h; NCI-H1703 cells, 5 days incubation, Sytox Green; read-out: Assay c) Prolif Mean IC50
[3] = Homo sapiens, NCI-H1703, 120 h, NCI-H1703 cells, 5 days incubation, Sytox Green; read-out: Assay c) Prolif Mean IC50
[4] = recombinant 6His tagged GLS protein (amino acids 63-669), 60 minutes reaction with glutamine

GLS1, sequence (O94925 63-669): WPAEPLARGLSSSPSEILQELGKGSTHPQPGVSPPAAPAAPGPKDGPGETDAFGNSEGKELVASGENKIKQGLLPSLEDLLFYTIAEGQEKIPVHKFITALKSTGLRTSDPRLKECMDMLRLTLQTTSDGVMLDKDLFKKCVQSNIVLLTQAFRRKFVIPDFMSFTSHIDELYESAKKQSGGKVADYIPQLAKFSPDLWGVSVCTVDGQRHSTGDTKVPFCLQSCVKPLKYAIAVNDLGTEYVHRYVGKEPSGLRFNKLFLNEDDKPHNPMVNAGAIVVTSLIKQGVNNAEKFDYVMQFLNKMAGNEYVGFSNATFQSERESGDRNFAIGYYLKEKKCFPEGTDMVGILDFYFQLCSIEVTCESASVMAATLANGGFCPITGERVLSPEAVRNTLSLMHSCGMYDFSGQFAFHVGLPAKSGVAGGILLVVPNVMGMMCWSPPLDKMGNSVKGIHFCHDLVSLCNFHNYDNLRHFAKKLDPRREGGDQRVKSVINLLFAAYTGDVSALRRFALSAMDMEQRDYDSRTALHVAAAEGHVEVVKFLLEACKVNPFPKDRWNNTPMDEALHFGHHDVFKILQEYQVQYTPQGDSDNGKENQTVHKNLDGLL
cellular GLS activity in PC3 cells, sequence (O94925 55-669): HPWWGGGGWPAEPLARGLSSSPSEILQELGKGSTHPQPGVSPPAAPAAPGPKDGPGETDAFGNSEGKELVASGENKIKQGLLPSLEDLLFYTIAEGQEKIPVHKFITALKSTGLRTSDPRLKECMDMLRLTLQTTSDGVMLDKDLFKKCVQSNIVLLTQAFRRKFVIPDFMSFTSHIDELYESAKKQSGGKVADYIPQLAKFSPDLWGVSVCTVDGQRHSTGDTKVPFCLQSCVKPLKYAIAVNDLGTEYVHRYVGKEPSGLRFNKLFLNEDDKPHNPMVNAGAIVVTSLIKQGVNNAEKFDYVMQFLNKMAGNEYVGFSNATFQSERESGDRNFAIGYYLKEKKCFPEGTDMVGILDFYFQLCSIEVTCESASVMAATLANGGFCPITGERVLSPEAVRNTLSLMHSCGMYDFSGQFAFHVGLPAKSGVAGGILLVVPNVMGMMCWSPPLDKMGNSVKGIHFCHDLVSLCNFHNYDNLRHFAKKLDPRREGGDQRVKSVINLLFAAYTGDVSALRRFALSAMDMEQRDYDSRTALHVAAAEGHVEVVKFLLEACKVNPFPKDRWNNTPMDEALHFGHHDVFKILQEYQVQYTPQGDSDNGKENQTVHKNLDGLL

SMILES: CN(C)[C@@H](C(=O)Nc1nnc(N[C@@H]2CCN(c3cccnn3)C2)s1)c1cccc(OC(F)F)c1 [Example 3(b), (2R)-2-[3-(difluoromethoxy)phenyl]-2-(dimethylamino)-N-[5-[[(3R)-1-pyridazin-3-ylpyrrolidin-3-yl]amino]-1,3,4-thiadiazol-2-yl]acetamide]
- IC50 [1]: 0.000295 µM
- IC50 (NCI-H1703 cells; [2]): 0.00825 µM
- IC50 (GLS1): 0.0524 µM

SMILES: COc1ccc([C@@H](C(=O)Nc2nnc(N[C@@H]3CCN(c4cccnn4)C3)s2)N(C)C)cc1 [Example 16, (2S)-2-(dimethylamino)-2-(4-methoxyphenyl)-N-[5-[[(3R)-1-pyridazin-3-ylpyrrolidin-3-yl]amino]-1,3,4-thiadiazol-2-yl]acetamide]
- IC50 [1]: 0.00476 µM
- IC50 (NCI-H1703 cells; [3]): 0.131 µM
- IC50 (GLS1; [4]): 0.198 µM

SMILES: COc1cccc([C@H](C(=O)Nc2nnc(N[C@@H]3CCN(c4cccnn4)C3)s2)N2CCC2)c1 (single isomer, unassigned) [Example 6(b)]
- IC50 [1]: 0.0297 µM
- IC50 (NCI-H1703 cells; [3]): 0.0808 µM
- IC50 (GLS1): 0.944 µM

SMILES: CN(C)[C@H](C(=O)Nc1nnc(N[C@@H]2CCN(c3cccnn3)C2)s1)c1ccc(F)cc1 [Example 2(a), (2S)-2-(dimethylamino)-2-(4-fluorophenyl)-N-[5-[[(3R)-1-pyridazin-3-ylpyrrolidin-3-yl]amino]-1,3,4-thiadiazol-2-yl]acetamide]
- IC50 (NCI-H1703 cells; [2]): 0.0896 µM

SMILES: CN(C)[C@H](C(=O)Nc1nnc(N[C@@H]2CCN(c3cccnn3)C2)s1)c1ccccc1 [Example 1(a), (2S)-2-(Dimethylamino)-2-phenyl-N-[5-[[(3R)-1-pyridazin-3-ylpyrrolidin-3-yl]amino]-1,3,4-thiadiazol-2-yl]acetamide]
- IC50 (NCI-H1703 cells; [2]): 0.0686 µM

SMILES: CN(C)[C@@H](C(=O)Nc1nnc(N[C@@H]2CCN(c3cccnn3)C2)s1)c1ccccc1 (single isomer, unassigned) [Example 1(b)]
- IC50 (NCI-H1703 cells; [2]): 0.0547 µM

SMILES: O=C(Nc1nnc(N[C@@H]2CCN(c3cccnn3)C2)s1)[C@@H](c1cccc(OC(F)F)c1)N1CCC1 (single isomer, unassigned) [Example 5(b)]
- IC50 (NCI-H1703 cells; [2]): 0.0132 µM

SMILES: O=C(Nc1nnc(N[C@@H]2CCN(c3cccnn3)C2)s1)[C@@H](c1ccc(F)c(OC(F)(F)F)c1)N1CCC1 (single isomer, unassigned) [Example 11(b)]
- IC50 [1]: 0.00177 µM
- IC50 (NCI-H1703 cells; [3]): 0.0301 µM
- IC50 (GLS1): 0.132 µM

SMILES: Cc1ccccc1[C@@H](C(=O)Nc1nnc(N[C@@H]2CCN(c3cccnn3)C2)s1)N(C)C [Example 17, (2S)-2-(dimethylamino)-2-(o-tolyl)-N-[5-[[(3R)-1-pyridazin-3-ylpyrrolidin-3-yl]amino]-1,3,4-thiadiazol-2-yl]acetamide]
- IC50 [1]: 0.0107 µM
- IC50 (NCI-H1703 cells; [2]): 0.163 µM
- IC50 (GLS1; [4]): 0.187 µM

SMILES: O=C(Nc1nnc(N[C@@H]2CCN(c3ccc(F)nn3)C2)s1)[C@@H](c1cccc(OC(F)(F)F)c1)N1CCC1 [Example 12(b), (2R)-2-(azetidin-1-yl)-N-[5-[[(3R)-1-(6-fluoropyridazin-3-yl)pyrrolidin-3-yl]amino]-1,3,4-thiadiazol-2-yl]-2-[3-(trifluoromethoxy)phenyl]acetamide]
- IC50 [1]: 0.00141 µM
- IC50 (NCI-H1703 cells; [2]): 0.0129 µM
- IC50 (GLS1): 0.246 µM

SMILES: CN(C)[C@H](C(=O)Nc1nnc(N[C@@H]2CCN(c3cccnn3)C2)s1)c1cccc(OC(F)F)c1 [Example 3(a), (2S)-2-[3-(difluoromethoxy)phenyl]-2-(dimethylamino)-N-[5-[[(3R)-1-pyridazin-3-ylpyrrolidin-3-yl]amino]-1,3,4-thiadiazol-2-yl]acetamide]
- IC50 [1]: 0.0112 µM
- IC50 (NCI-H1703 cells; [2]): 0.0127 µM
- IC50 (GLS1; [4]): 0.261 µM

SMILES: O=C(Nc1nnc(N[C@@H]2CCN(c3cccnn3)C2)s1)[C@@H](c1cccc(OC(F)(F)F)c1)N1CCC1 [Example 7(b), (2R)-2-(azetidin-1-yl)-N-[5-[[(3R)-1-pyridazin-3-ylpyrrolidin-3-yl]amino]-1,3,4-thiadiazol-2-yl]-2-[3-(trifluoromethoxy)phenyl]acetamide]
- IC50 [1]: 0.000985 µM
- IC50 (NCI-H1703 cells; [2]): 0.00245 µM
- IC50 (GLS1): 0.102 µM

SMILES: O=C(Nc1nnc(N[C@@H]2CCN(c3cccnn3)C2)s1)[C@H](c1cccc(OC(F)(F)F)c1)N1CCC1 [Example 7(a), (2S)-2-(azetidin-1-yl)-N-[5-[[(3R)-1-pyridazin-3-ylpyrrolidin-3-yl]amino]-1,3,4-thiadiazol-2-yl]-2-[3-(trifluoromethoxy)phenyl]acetamide]
- IC50 [1]: 0.00861 µM
- IC50 (NCI-H1703 cells; [2]): 0.00624 µM
- IC50 (GLS1; [4]): 1.33 µM

SMILES: CN(C)[C@@H](C(=O)Nc1nnc(N[C@@H]2CCN(c3cccnn3)C2)s1)c1ccc(F)cc1 (single isomer, unassigned) [Example 2(b)]
- IC50 (NCI-H1703 cells; [2]): 0.0979 µM

SMILES: CN1CCc2ccccc2[C@H]1C(=O)Nc1nnc(N[C@@H]2CCN(c3cccnn3)C2)s1 [Example 8(a), (1S)-2-methyl-N-[5-[[(3R)-1-pyridazin-3-ylpyrrolidin-3-yl]amino]-1,3,4-thiadiazol-2-yl]-3,4-dihydro-1H-isoquinoline-1-carboxamide]
- IC50 [1]: 0.00191 µM
- IC50 (NCI-H1703 cells; [2]): 0.00881 µM
- IC50 (GLS1; [4]): 0.053 µM

SMILES: O=C(Nc1nnc(N[C@@H]2CCN(c3cccnn3)C2)s1)[C@H](c1ccc(F)c(OC(F)(F)F)c1)N1CCC1 [Example 11(a), (2S)-2-(Azetidin-1-yl)-2-[4-fluoro-3-(trifluoromethoxy)phenyl]-N-[5-[[(3R)-1-pyridazin-3-ylpyrrolidin-3-yl]amino]-1,3,4-thiadiazol-2-yl]acetamide]
- IC50 [1]: 0.0308 µM
- IC50 (NCI-H1703 cells; [3]): 0.0191 µM
- IC50 (GLS1; [4]): 0.952 µM

SMILES: CN(C)[C@H](C(=O)Nc1nnc(N[C@@H]2CCN(c3cccnn3)C2)s1)c1cccc(OC(F)(F)F)c1 [Example 18, (2S)-2-(dimethylamino)-N-[5-[[(3R)-1-pyridazin-3-ylpyrrolidin-3-yl]amino]-1,3,4-thiadiazol-2-yl]-2-[3-(trifluoromethoxy)phenyl]acetamide]
- IC50 [1]: 0.0011 µM
- IC50 (NCI-H1703 cells; NCI-H1703 cells, 5 days incubation, Sytox Green; read-out: Assay c) Prolif Mean IC50): 0.00351 µM
- IC50 (GLS1; [4]): 0.182 µM

SMILES: CN(C)[C@@H](C(=O)Nc1nnc(N[C@@H]2CCN(c3cccnn3)C2)s1)c1cccc(OC(F)(F)F)c1 (single isomer, unassigned) [Example 4(b)]
- IC50 [1]: 0.00191 µM
- IC50 (NCI-H1703 cells; [3]): 0.00252 µM
- IC50 (GLS1): 0.522 µM

SMILES: CN1CCc2ccccc2[C@@H]1C(=O)Nc1nnc(N[C@@H]2CCN(c3cccnn3)C2)s1 [Example 8(b), (1R)-2-methyl-N-[5-[[(3R)-1-pyridazin-3-ylpyrrolidin-3-yl]amino]-1,3,4-thiadiazol-2-yl]-3,4-dihydro-1H-isoquinoline-1-carboxamide]
- IC50 [1]: 0.0209 µM
- IC50 (NCI-H1703 cells; [2]): 0.0851 µM
- IC50 (GLS1): 0.194 µM

SMILES: COc1ccc([C@H](C(=O)Nc2nnc(N[C@@H]3CCN(c4cccnn4)C3)s2)N(C)C)cc1 [Example 15, (2R)-2-(dimethylamino)-2-(4-methoxyphenyl)-N-[5-[[(3R)-1-pyridazin-3-ylpyrrolidin-3-yl]amino]-1,3,4-thiadiazol-2-yl]acetamide]
- IC50 [1]: 0.0222 µM
- IC50 (NCI-H1703 cells; [3]): 0.152 µM
- IC50 (GLS1; [4]): 3.75 µM

SMILES: O=C(Nc1nnc(N[C@@H]2CCN(c3cccnn3)C2)s1)[C@H](c1cccc(OC(F)F)c1)N1CCC1 [Example 5(a), (2S)-2-(azetidin-1-yl)-2-[3-(difluoromethoxy)phenyl]-N-[5-[[(3R)-1-pyridazin-3-ylpyrrolidin-3-yl]amino]-1,3,4-thiadiazol-2-yl]acetamide]
- IC50 (NCI-H1703 cells; [2]): 0.0293 µM
